# Several values for one entry are separate records, joined by “and”; a condition that tells them apart may be missing. Identical values can stand only once. Like-named read-outs stand apart in the source and are kept apart here.
# Experiments:
# [1] = target: T1, stabilized FtsZ-GMPCPP polymers (Bacillus subtilis, UniProt P17865); assay: Fluorescence anisotropy screen with probe (S)-2 at two compound concentrations; type: binding; settings: probe (S)-2 3 μM, compound 20 and 200 μM
# T1 construct: made in house
# T1 sequence (P17865 whole entry): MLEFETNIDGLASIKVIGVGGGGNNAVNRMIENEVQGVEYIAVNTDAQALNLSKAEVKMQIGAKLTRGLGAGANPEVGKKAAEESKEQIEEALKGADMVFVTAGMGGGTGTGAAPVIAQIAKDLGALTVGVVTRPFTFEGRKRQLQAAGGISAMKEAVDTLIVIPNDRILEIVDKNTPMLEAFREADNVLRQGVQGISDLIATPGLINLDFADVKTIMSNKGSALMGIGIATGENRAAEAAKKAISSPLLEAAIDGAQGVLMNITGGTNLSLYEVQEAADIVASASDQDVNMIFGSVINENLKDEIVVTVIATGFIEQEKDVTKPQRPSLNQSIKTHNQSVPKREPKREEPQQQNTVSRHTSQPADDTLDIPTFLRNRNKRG
# Experimental: Once the fluorescence method for ligand binding into the interdomain cleft was set up, we evaluated its potential to screen for FtsZ allosteric inhibitors. Complementary to this screen, cytological profiling tests of the identified binders allow ascertaining their ability to target FtsZ in bacterial cells. Fluorescence anisotropy measurements of probe (S)-2 at two concentrations of each tested compound (20 and 200 μM) were acquired; the solubility range of positively testing compounds was determined spectrophotometrically. […] The promiscuous inhibitors resveratrol,[40] plumbagin,[41] and tiplaxtinin[42] […] It should be noticed that aggregating compounds may sequester the protein or the probe or may scatter highly polarized light, potentially interfering with the fluorescence anisotropy measurements. Colored and fluorescent compounds can also interfere. Compounds initially testing positive in the anisotropy screen should thus be checked for any unexpected changes of the total fluorescence intensity in the same samples, as well as for any artefactual effects on replicates omitting FtsZ.
# (§1) Figure 4 Fluorescence anisotropy screen for FtsZ allosteric inhibitors combined with cell-based methods. (A) Screen for FtsZ inhibitors employing the fluorescence anisotropy of probe (S)-2 (3 μM) and stabilized FtsZ-GMPCPP polymers (8 μM binding sites). The anisotropy values of the partially bound probe (void black circles), the free probe (void gray circles), and the values with two concentrations of each compound, 20 μM (gray circles) and 200 μM (black circles) are shown. Control values with the corresponding concentrations of dimethyl sulfoxide (DMSO) vehicle (2% void and gray circles; 4%, black circle) are also shown. (B) Chemical structures of synthetic ligands 6–26. (C) Effects of low-affinity inhibitors 6, 7, and 9 on B. subtilis 168 cell division. Raw data plots (n ≥ 30) are shown with the mean values marked (statistics in Table S2). The cells were incubated for 3 h with each compound, and cell lengths were measured. (D) Representative phase-contrast images of cells after 3 h with 7 or 9 (0.75 mM each). (E) Cellular localization of FtsZ-GFP in B. subtilis SU570 following growth for 1.5 h in the absence (inset) and presence of 7 (0.2 mM). Bars, 10 μm.
# (§2) Competition assays were performed by measuring, through the decrease in fluorescence anisotropy, the displacement of the fluorescent probes from stabilized FtsZ polymers. Increasing concentrations of competing ligands were added to the mixtures of cross-linked FtsZ polymers (10–15 μM) with probe 1 (3 μM), 7–8 μM FtsZ polymers with probe (S)-2 (3 μM), or 2–3 μM FtsZ polymers with (R)-5 (3 μM). HEPES buffer with 10 mM MgCl2 and 0.1 mM GMPCPP was employed, with a final volume of 0.5 mL, and the anisotropy measured at 25 °C. Under these conditions, the initial fraction of the probe bound was between 0.4 and 0.5. The fraction of the probe bound (Vb) was calculated [drawing 1] where rfree and rmax are the anisotropy values of the free and bound probes, respectively, and R is the ratio between the fluorescence intensities of the bound and free probe (Table S1). The binding data were plotted against the competing ligand concentration and fitted by competition equilibrium of the ligand and the probe for the same binding site. The resulting system of equations[50] was numerically solved using the Equigra v. 5.0 program,[33] which provided the best-fitted value of the competitor binding constant.
# [2] = system: B. subtilis; assay: Minimal division inhibitory concentration and cell division phenotype, B. subtilis; type: cell-based, Bacillus subtilis; settings: for minimal effective concentration: Bacillus subtilis, read-out: MDC B. subtilis
# Experimental: (§3) B. subtilis 168 and Staphylococcus spp. were grown in cation adjusted Mueller–Hinton broth (CAMHB; Becton, Dickinson and Company) at 37 °C. B. subtilis SU570 were grown in the same medium at 30 °C. In all cases, the cells were grown to an absorbance of 0.1–0.2 at 600 nm and then incubated either with the compounds or DMSO vehicle. Microscopy assays and cell measurement were performed as previously described.[31] MIC values were determined by a broth macrodilution method.[51] MBC values were determined as the lowest concentration of inhibitor at which there was a 99.9% reduction in colony-forming units/mL compared to the inoculum. To construct a S. aureus strain expressing FtsZ-mCherry, the plasmid pCN-ftsZmch[9] was electroporated into RN4220 and 0.1 μM cadmium chloride (Sigma-Aldrich) was used to induce the expression of the construct under the control of the Pcad promoter.
# [3] = system: B. subtilis 168; assay: Cell length of B. subtilis 168 incubated with FtsZ inhibitors; type: cell-based, Bacillus subtilis; design: unit not given here; settings: B. subtilis 168, 3 h, mean and standard error, n ≥ 30
# Experimental: as §1, with “The anisotropy values of the partially bound probe (void black circles), the free probe (void gray circles), and the values with two concentrations of each compound, 20 μM (gray circles) and 200 μM (black circles) are shown.” left out, “(B) Chemical structures of synthetic ligands 6–26. (C) Effects of low-affinity inhibitors 6, 7, and 9 on B. subtilis 168 cell division.” left out
# as §3, with “MBC values were determined as the lowest concentration of inhibitor at which there was a 99.9% reduction in colony-forming units/mL compared to the inoculum.” left out, “promoter. […]” for “promoter.”
# [4] = target: T2, stabilized FtsZ-GMPCPP polymers (BsFtsZ) (Bacillus subtilis, UniProt P17865); assay: Competition assay: displacement of probe (S)-2 from stabilized FtsZ-GMPCPP polymers; type: binding; settings: for Kd: (S)-2 3 μM, 8 μM binding sites
# T2 construct: made in house
# T2 sequence (P17865 whole entry): as above
# Experimental: (§4) FtsZ (10–15 μM) was assembled in HEPES buffer, 10 mM MgCl2, 50 μM GMPCPP at 25 °C for 10 min, and then 0.15% (v/v) glutaraldehyde[36] (distilled grade for microscopy, TAAB Laboratories, U.K.) was added to the solution that was incubated at 25 °C for 10 min more. (This was the minimal glutaraldehyde concentration determined to stabilize FtsZ polymers specifically binding probe 1.) The remains of the cross-linking agent were quenched by adding 60 mM NaBH4, the sample was incubated on ice for 10 min and degassed.[36] Cross-linked polymers were centrifuged for 10 min at 8200g (5000 rpm) and 4 °C in 15 mL Falcon tubes employing a Rotina 380R (Hettich) centrifuge, the supernatant was removed and the pellet was resuspended in the same volume of HEPES buffer, 10 mM MgCl2, containing 5 μM GMPCPP. Fixed FtsZ polymers were active in binding assays after more than 2 days at 4 °C; they could also be frozen in liquid nitrogen with a small loss of binding capacity. […] Cross-linked polymers of SaFtsZ were similarly prepared.
# as §2
# [5] = Solubility in HEPES buffer with 2% DMSO, spectrophotometric; type: physicochemical; settings: HEPES buffer containing 2% DMSO, 25 °C, aqueous buffer, kinetic from dmso stock; HEPES buffer pH 6.8 containing 2% DMSO
# Experimental: 3.2. Solubility of Compounds. Stock solutions of compounds were prepared in
# DMSO (spectroscopic grade, Merck) a nd stored at -20 °C. Compound solubility in 50
# mM HEPES-KOH, 50 mM KCl, 1 mM EDTA, pH 6.8 (HEPES buffer) containing 2%
# DMSO was determined spectrophotometrically, monitoring the linear correlation
# between the absorbance and the compound concentration and the absence of light
# scattering. The solutions were optionally centrifuged at 100000 rpm for 20 min at 25 °C
# in a TLA100 rotor with a Beckman Optima Max -XP ultracentrifuge.
# [6] = system: S. aureus Mu50; assay: Minimal growth inhibitory concentration (broth macrodilution), S. aureus Mu50; type: cell-based, Staphylococcus aureus; settings: Staphylococcus aureus, MU50, read-out: MIC S. aureus Mu50
# Experimental: as §3
# [7] = system: B. subtilis; assay: Minimal growth inhibitory concentration (broth macrodilution), B. subtilis; type: cell-based, Bacillus subtilis; settings: Bacillus subtilis, read-out: MIC B. subtilis
# Experimental: as §3
# [8] = system: S. aureus Mu50; assay: Minimal division inhibitory concentration, S. aureus Mu50; type: cell-based; settings: Staphylococcus aureus, MU50, read-out: MDC S. aureus Mu50
# Experimental: as §3
# [9] = target: T3, stabilized polymers of FtsZ from B. subtilis (Bacillus subtilis, UniProt P17865); assay: Competition assay: displacement of probe (R)-5 from stabilized BsFtsZ-GMPCPP polymers; type: binding; settings: stabilized polymers of FtsZ from B. subtilis, probe (R)-5, mean ± SEM
# T3 construct: made in house
# T3 sequence (P17865 whole entry): as above
# Experimental: as §4, §2
smiles,measurement,setting,value
"O=C(O)C(=O)c1cn(Cc2ccccc2)c2ccc(-c3ccc(OC(F)(F)F)cc3)cc12 [tiplaxtinin, reference compound]","result of the anisotropy screen, in words",[1],weakly modified anisotropy and total fluorescence intensity
same,"inhibition of B. subtilis cell division, in words",[2],none of them impaired B. subtilis cell division
NC(=O)c1ccc(NCc2cccc(Cl)c2)cc1 [Compound 9],length,[3]; 0.5 mM,6.1 ± 0.3
same,length,[3]; 0.75 mM,11.6 ±0.4
same,Kd,[4],196 µM and ~200 µM
same,solubility,[5],≥ 100 µM
same,"result of the anisotropy screen, in words",[1],weak binders
CN(Cc1cccc(Cl)c1)c1ccc(C(N)=O)cc1 [Compound 10],Kd,[4],250 µM and ~200 µM
same,solubility,[5],≥ 100 µM
same,"result of the anisotropy screen, in words",[1],weak binders
"Oc1ccc(/C=C/c2cc(O)cc(O)c2)cc1 [resveratrol, reference compound]","result of the anisotropy screen, in words",[1],weakly modified anisotropy and total fluorescence intensity
same,"inhibition of B. subtilis cell division, in words",[2],none of them impaired B. subtilis cell division
O=C(O)CCN(Cc1ccccc1)Cc1cccc(Sc2ccccc2)c1 [PC170942],"result of the anisotropy screen, in words",[1],no evidence of binding
"Nc1nc2c(ncn2[C@@H]2O[C@H](COP(=O)(O)OP(=O)(O)O)[C@@H](O)[C@H]2O)c(=O)[nH]1 [GDP, guanosine diphosphate, reference compound]","displacement of (S)-2 from its binding site, in words",[4]; negative control,does not displace
"OCc1nc2cc(Cl)cnc2s1 [CTPM, 6-(chloro[1,3]thiazolo[5,4-b]pyridin-2-yl)methanol, reference compound]",Kd,[4],1000 ± 100 µM
NC(=O)c1c(F)ccc(OCCCc2cccc(C(F)(F)F)c2)c1F [Compound 23],MIC,[6],50 µM
same,MIC,[7],10 µM
same,solubility,[5],50 µM
same,minimal effective concentration,[8],25 µM
same,Kd,[9]; read-out: KD,1.5 ± 0.1 µM
same,minimal effective concentration,[2],5 µM
"CC1=CC(=O)c2c(O)cccc2C1=O [plumbagin, reference compound]","result of the anisotropy screen, in words",[1],weakly modified anisotropy and total fluorescence intensity
same,"inhibition of B. subtilis cell division, in words",[2],none of them impaired B. subtilis cell division
"COc1ccc(F)c(C(N)=O)c1F [DFMBA, 2,6-difluoro-3-methoxybenzamide, reference compound]",Kd,[4],670 ± 50 µM
CN(C)CCC(Oc1ccc(F)c(C(N)=O)c1F)c1cccc(C(F)(F)F)c1 (stereo not shown) [Compound 24],MIC,[6],> 100 µM
same,MIC,[7],> 100 µM
same,solubility,[5],> 1000 µM
same,minimal effective concentration,[8],> 100 µM
same,Kd,[9]; KD,145 ± 10 µM
same,minimal effective concentration,[2],> 50 µM
O=C(Oc1cc(OC(=O)c2cc(O)cc(O)c2)c2ccccc2c1)c1ccc(O)c(O)c1 [UCM44],"result of the anisotropy screen, in words",[1],marginal inhibitory effect
CN(Cc1cccc(Cl)c1)c1cccc(C(N)=O)c1 [Compound 7],length,[3]; 0.5 mM,8.5 ± 0.3
same,length,[3]; 0.75 mM,24.7 ±0.8
same,Kd,[4],159 µM and ~200 µM
same,solubility,[5],≥ 100 µM
same,"result of the anisotropy screen, in words",[1],weak binders
same,fold lower concentration inhibiting B. subtilis division than 3-methoxybenzamide,[2]; 3-methoxybenzamide value from ref 44,~20 fold
CCN(CC)CCNc1nc(/C=C/c2ccc(Cl)cc2)nc2cc3ccccc3cc12 [zantrin Z3],"result of the anisotropy screen, in words",[1],no evidence of binding
NC(=O)c1cccc(NCc2cccc(Cl)c2)c1 [Compound 6],length,[3]; 0.5 mM,5.9 ± 0.3
same,length,[3]; 0.75 mM,8.0 ± 0.2
same,Kd,[4],233 µM and ~200 µM
same,solubility,[5],≥ 100 µM
same,"result of the anisotropy screen, in words",[1],weak binders
NC(=O)c1c(F)ccc(OCCc2cccc(C(F)(F)F)c2)c1F [Compound 22],MIC,[6],200 µM
same,MIC,[7],50 µM
same,solubility,[5],> 100 µM
same,minimal effective concentration,[8],100 µM
same,Kd,[9]; read-out: KD,5.9 ± 0.4 µM
same,minimal effective concentration,[2],15 µM
